1 compound from patent publication US3991052A (priority 1975, dated 1976) can be followed below.

What is called LD50 is the dose at which mortality reaches 50%. Low values mean a more toxic substance, high ones a less toxic substance.

One series has as its system Cryptococcus neoformans. In words: MIC, standard agar-dilution assay. In kind it is cell-based.
Series [1] relates to Citrobacter freundii MX CF17. In words: MIC, standard agar-dilution assay. In kind it is cell-based. The following applies: MXCF17.
The next series concerns Escherichia coli EC14. In words: MIC, standard agar-dilution assay. In kind it is cell-based.
A further series deals with Proteus morganii PR15. In words: MIC, standard agar-dilution assay. Format: cell-based. As to conditions: Morganella morganii.
Series [2] in a line: toxicity (LD50) in mice, intraperitoneal. The following applies: mouse, in vivo, ip, intraperitoneally.
Series [3] has as its system Streptococcus faecalis X66. In words: MIC, standard agar-dilution assay. Format: cell-based. As to conditions: Enterococcus faecalis.
The test system of a further series is Salmonella typhimurium. In words: MIC, standard agar-dilution assay. In kind it is cell-based. As to conditions: Salmonella enterica.
The subject of a further series is Aspergillus flavus E. In words: MIC, standard agar-dilution assay. Format: cell-based.
For another series, the system named is Serratia marcescens SE3. In words: MIC, standard agar-dilution assay. In kind it is cell-based.
Another series deals with Histoplasma capsulatum. In words: microbe, parasite or virus in culture. In kind it is cell-based.
For another series, the system named is Salmonella typhosa SA12. In words: MIC, standard agar-dilution assay. In kind it is cell-based. The following applies: Salmonella enterica.
For series [4], the system named is Klebsiella pneumoniae KL14. In words: MIC, standard agar-dilution assay. Format: cell-based.
For a further series, the system named is Candida tropicalis Z17. In words: MIC, standard agar-dilution assay. Format: cell-based.
The test system of series [5] is Trichophyton mentagrophytes 27. In words: MIC, standard agar-dilution assay. Format: cell-based.
In series [6] the test system is Staphylococcus aureus 3074. In words: MIC, standard agar-dilution assay. Format: cell-based.
For a further series, the system named is Candida albicans. In words: standard disc-diffusion assay. Format: cell-based. (Agar diffusion results depend on both activity and mobility in agar.)
A further series has as its system Erwinia amylovora. In words: MIC, standard agar-dilution assay. Format: cell-based.
The next series deals with Blastomyces dermatitidis. In words: MIC, standard agar-dilution assay. In kind it is cell-based.
Series [7] has as its system Pseudomonas aeruginosa X239. In words: MIC, standard agar-dilution assay. Format: cell-based.
For series [8], the system named is Bordetella bronchiseptica 16. In words: MIC, standard agar-dilution assay. Format: cell-based.
The next series relates to Ceratocystis ulmi. In words: MIC, standard agar-dilution assay. In kind it is cell-based.
Series [9] has as its system Pseudomonas solanacearum X185. In words: microbe, parasite or virus in culture. Format: cell-based. The following applies: Ralstonia solanacearum.
Series [10] deals with Staphylococcus aureus 3055. In words: MIC, standard agar-dilution assay. In kind it is cell-based.
For a further series, the system named is C. albicans. In words: dermal C. albicans infection in rabbits, topical treatment. Format: in vivo. The following applies: ten days treatment with 1% solution in propylene glycol.

Structures are written as SMILES. In brackets after ≈: the same amount, converted by molar mass.

With `COC1c2cc(Cl)c(O)cc2ON2C(=O)C3NC(=O)C12SS3` (stereo not drawn), the MIC in the series on Cryptococcus neoformans is below 0.156 µg/mL; in series [1] it was above 100 µg/mL; against Escherichia coli EC14 it was above 100 µg/mL; against Proteus morganii PR15, above 100 µg/mL; in series [3], above 100 µg/mL; with Salmonella typhimurium, above 100 µg/mL. For the same compound, the MIC was 25 µg/mL (≈ 69.3 µM) in the series on Aspergillus flavus E; above 100 µg/mL in the series on Serratia marcescens SE3; 10 µg/mL (≈ 27.7 µM) against Histoplasma capsulatum; above 100 µg/mL in the series on Salmonella typhosa SA12; above 100 µg/mL in [4]; above 100 µg/mL in the series on Candida tropicalis Z17. The MIC is 25 µg/mL (≈ 69.3 µM) in series [5]; 0.78 µg/mL (≈ 2.16 µM) in [6]; 6.25 µg/mL (≈ 17.3 µM) in the series with Erwinia amylovora; 10 µg/mL (≈ 27.7 µM) in the series on Blastomyces dermatitidis; above 100 µg/mL in [7]; 50 µg/mL (≈ 139 µM) in [8]. In addition, the values for the MIC (against Ceratocystis ulmi; in series [9]; in series [10]) were 12.5 µg/mL (≈ 34.6 µM), above 100 µg/mL and 3.12 µg/mL (≈ 8.65 µM), respectively. The LD50 in [2] was 106 mg/kg. For the same compound, the “amount inhibiting Candida albicans” value with Candida albicans is “less than 0.312 mcg per disc”. For the same compound, the “lesions caused by a dermal C. albicans infection” value with C. albicans was “reduced in severity and size”.
